# Experimental data: US6828315B1, “1-Amino triazoloc4,3-a! quinazoline-5-ones and/or -5-thiones inhibiting phosphodiesterase IV” (Warner-Lambert LLC, priority 1999, dated 2004)
# Where a name gives a salt, the structure may show the parent alone.
row,melting point,Compound
1,138 °C,"O=c1c2cc(Cl)ccc2n2c(N3CCCCCC3)nnc2n1Cc1ccc(C(F)(F)F)cc1 [Compound 14, 1-(azepan-1-yl)-7chloro-4-(4-(trifluoromethyl)benzyl)-4H-[1,2,4]triazolo[4,3-a]quinazolin-5-one]"
2,180 °C,"Cn1c(=O)c2cc(Cl)ccc2n2c(N3CCC(Cc4ccccc4)CC3)nnc12 [Compound 210, 1-(4-benzylpiperidin-1-yl)-7chloro-4-methyl-4H-[1,2,4]triazolo[4,3-a]quinazolin-5-one]"
3,179 °C,"Cn1c(=O)c2ccc(Cl)cc2n2c(N3CCCCCC3)nnc12 [Compound 175, 1-(azepan-1-yl)-8-chloro-4-methyl-4H-[1,2,4]triazolo[4,3-a]-quinazolin-5-one]"
4,200 °C,"N#Cc1ccc(Cn2c(=O)c3cc(Br)ccc3n3c(N4CCCCC4)nnc23)cc1 [Compound 74, 4-(7-Bromo-5-oxo-1-piperidin-1-yl-5H-[1,2,4]triazolo[4,3-a]quinazolin-4-ylmethyl)-benzonitrile]"
5,112 °C,"CCCCN(CCCC)c1nnc2n(C)c(=O)c3cc(Cl)ccc3n12 [Compound 167, 7-chloro-1-dibutylamino-4-methyl-4H-[1,2,4]triazolo[4,3-a]-quinazolin-5-one]"
6,98 to 100 °C,"CCn1c(=O)c2cc(Cl)ccc2n2c(N3CCCCCC3)nnc12 [Compound 204, 1-(azepan-1-yl)-7-chloro-4-ethyl-4H-[1,2,4]triazolo[4,3-a]-quinazolin-5-one]"
7,246 °C,"CN(C)c1nnc2n(Cc3ccc(CC(=O)O)cc3)c(=O)c3cc(Br)ccc3n12 [Compound 82, [4-(7-Bromo-1-dimethylamino-5-oxo-5H-[1,2,4]triazolo[4,3-a]quinazolin-4-ylmethyl)-phenyl]-acetic acid]"
8,138 °C,"COc1ccc(Cn2c(=O)c3cc(Cl)ccc3n3c(N4CCCCCC4)nnc23)cc1 [Compound 18, 1-(azepan-1-yl)-7-chloro-4-(4-methoxybenzyl)-4H-[1,2,4]triazolo[4,3-a]quinazolin-5-one]"
9,142 °C,"CN(C)c1nnc2n(Cc3cccnc3)c(=O)c3cc(Br)ccc3n12 [Compound 84, 7-Bromo-1-dimethylamino-4-pyridin-3-ylmethyl-4H-[1,2,4]triazolo[4,3-a]quinazolin-5-one]"
10,206 °C,"O=c1c2cc([N+](=O)[O-])ccc2n2c(N3CCCCCC3)nnc2n1Cc1ccccc1 [Compound 198, 1-Azepan-1-yl-4-benzyl-7-nitro-4H-[1,2,4]triazolo[4,3-a]quinazolin-5-one]"
11,140 °C,"COC(=O)c1cc(C(=O)Cn2c(=O)c3cc(Cl)ccc3n3c(N4CCCCCC4)nnc23)ccc1OC [Compound 30, 5-[(1-(azepan-1-yl)-7-chloro-5-oxo-5H-[1,2,4]triazolo[4,3-a]-quinazolin-4-yl)acetyl]-2-methoxybenzoic acid methyl ester]"
12,189 °C,"Cc1ccc2c(c1)c(=O)n(Cc1ccccc1)c1nnc(N3CCCC3)n21 [Compound 191, 4-Benzyl-7-methyl-1-pyrrolidin-1-yl-4H-[1,2,4]triazolo[4,3-a]quinazolin-5-one]"
13,222 °C,"N#Cc1ccc(Cn2nc(N3CCCC3)n3c4ccc(Br)cc4c(=O)nc23)cc1 [Compound 144, 4-(7-bromo-5-oxo-1-(pyrrolidin-1-yl)-5H-[1,2,4]triazolo[4,3-a]-quinazolin-3-ylmethyl)-benzonitrile]"
14,193 °C,"Cc1ccc2c(c1)c(=O)nc1n(CC=Cc3ccccc3)nc(N3CCCCCC3)n21 [Compound 157, 1-(azepan-1-yl)-7-methyl-3-(3-phenylallyl)-3H-[1,2,4]triazolo[4,3-a]quinazolin-5-one]"
15,172 °C,"O=c1c2cc(Br)ccc2n2c(N3CC=CCC3)nnc2n1Cc1ccccc1 [Compound 185, 4-Benzyl-7-bromo-1-(3,6-dihydro-2H-pyridin-1-yl)-4H-[1,2,4]triazolo[4,3-a]quinazolin-5-one]"
16,203 to 205 °C,"Cn1c(=O)c2cc(Cl)ccc2n2c(N3CCCC3)nnc12 [Compound 205, 7-chloro-4-methyl-1-(pyrrolidin-1-yl)-4H-[1,2,4]triazolo[4,3-a]-quinazolin-5-one]"
17,177 °C,"O=c1c2cc(Br)ccc2n2c(N3CCSCC3)nnc2n1CC=Cc1cccnc1 [Compound 77, 7-Bromo-4(3-pyridin-3-yl-allyl)-1-thiomorpholin-4-yl-4H-[1,2,4]triazolo[4,3-a]quinazolin-5-one]"
18,130 °C,"O=c1nc2n(CCCc3ccccc3)nc(N3CCCCCC3)n2c2ccc(Cl)cc12 [Compound 129, 1-(azepan-1-yl)-7-chloro-3-(3-phenylpropyl)-3H-[1,2,4]triazolo[4,3-a]quinazolin-5-one]"
19,272 °C,"Cn1c(=O)c2cc(Cl)ccc2n2c(N3CCc4ccccc4C3)nnc12 [Compound 209, 7-chloro-1-(3,4-dihydro-1H-isoquinolin-2-yl)-4-methyl-4H-[1,2,4]triazolo[4,3-a]quinazolin-5-one]"
20,283 °C,"CN(C)c1nn(Cc2ccc(O)cc2)c2nc(=O)c3cc(Br)ccc3n12 [Compound 148, 7-Bromo-1-dimethylamino-3-(4-hydroxy-benzyl)-3H-[1,2,4)triazolo[4,3-a]quinazolin-5-one]"

row,melting point,Compound
1,157 °C,"O=c1c2ccccc2n2c(N3CCCCCC3)nnc2n1Cc1ccccc1 [Compound 201, 1-(azepan-1-yl)-4-benzyl-4H-[1,2,4]triazolo[4,3-a]quinazolin-5-one]"
2,130 °C,"CCCCn1nc(N2CCCC2)n2c3ccc(Br)cc3c(=O)nc12 [Compound 153, 7-bromo-3-(n-butyl)-1-(pyrrolidin-1-yl)-3H-[1,2,4]triazolo[4,3-a]-quinazolin-5-one]"
3,105 to 107 °C,"O=C(Cn1c(=O)c2cc(Cl)ccc2n2c(N3CCCCCC3)nnc12)c1ccccc1 [Compound 27, 1-Azepan-1-yl-7-chloro-4-(2-oxo-2-phenyl-ethyl)-4H-[1,2,4]triazolo[4,3-a]quinazolin-5-one]"
4,206 °C,"N#Cc1cccc(Cn2c(=O)c3cc(Br)ccc3n3c(N4CCCC4)nnc23)c1 [Compound 45, 3-(7-Bromo-5-oxo-1-pyrrolidin-1-yl-5H-[1,2,4]triazolo[4,3-a]quinazolin-4-ylmethyl)benzonitrile]"
5,243 °C,"COC(=O)C(c1ccccc1)n1c(=O)c2cc(Br)ccc2n2c(N(C)C)nnc12 (stereo not drawn) [Compound 90, (7-Bromo-1-dimethylamino-5-oxo-5H-[1,2,4]triazolo[4,3-a]quinazolin-4-yl)-phenyl-acetic acid methyl ester]"
6,183 to 185 °C,"O=c1c2cc(Br)ccc2n2c(N3CCCCC3)nnc2n1Cc1ccccc1 [Compound 178, 4-benzyl-7-bromo-1-(piperidin-1-yl)-4H-[1,2,4]triazolo[4,3-a]-quinazolin-5-one]"
7,295 °C (dec.),"O=c1c2cc(O)ccc2n2c(N3CCCC3)nnc2n1C/C=C/c1ccccc1 [Compound 108, 7-Hydroxy-4-((E)-3-phenyl-allyl)-1-pyrrolidin-1-yl-4H-[1,2,4]triazolo[4,3-a]quinazolin-5-one]"
8,199 to 203 °C,"Cn1c(=O)c2ccccc2n2c(N3CCCCCC3)nnc12 [Compound 200, 1-(azepan-1-yl)-4-methyl-4H-[1,2,4]triazolo[4,3-a]quinazolin-5-one]"
9,129 °C,"COc1ccc(C=CCn2c(=O)c3cc(Br)ccc3n3c(N4CCCCCC4)nnc23)cc1 [Compound 39, 1-Azepan-1-yl-7-bromo-4-[3-(4-methoxy-phenyl)-allyl]-4H-[1,2,4]triazolo[4,3-a]quinazolin-5-one]"
10,219 °C,"N#Cc1ccc2c(c1)c(=O)n(Cc1ccccc1)c1nnc(N3CCCC3)n21 [Compound 197, 4-Benzyl-5-oxo-1-pyrrolidin-1-yl-4,5-dihydro-[1,2,4]triazolo[4,3-a]quinazoline-7-carbonitrile]"
11,> 275 °C,"Cn1c(=O)c2c(Cl)cccc2n2c(N3CCCCCC3)nnc12 [Compound 202, 1-(azepan-1-yl)-6-chloro-4-methyl-4H-[1,2,4]triazolo[4,3-a]-quinazolin-5-one]"
12,202 °C,"O=c1c2cc(Br)ccc2n2c(N3CCCC3)nnc2n1CC(F)(F)F [Compound 67, 7-Bromo-1-pyrrolidin-1-yl-4-(2,2,2-trifluoro-ethyl)-4H-[1,2,4]triazolo[4,3-a]quinazolin-5-one]"
13,238 °C,"COc1ccc(C(=O)Cn2nc(N3CCCCCC3)n3c4ccc(Cl)cc4c(=O)nc23)cc1 [Compound 131, 1-(azepan-1-yl)-7-chloro-3-(2-(4-methoxyphenyl)-2-oxoethyl]-3H-[1,2,4]triazolo[4,3-a]quinazolin-5-one]"
14,215 °C,"CCN(CC)CCn1c(=O)c2cc(Br)ccc2n2c(N3CCCC3)nnc12 (as salt: HCl) [Compound 69, 7-Bromo-4-(2diethylamino-ethyl)-1-pyrrolidin-1-yl-4H-[1,2,4)triazolo[4,3-a]quinazolin-5-one]"
15,163 °C,"O=c1c2cc(Cl)ccc2n2c(N3CCCC3)nnc2n1Cc1ccccc1 [Compound 173, 4-benzyl-7chloro-1-(pyrrolidin-1-yl)-4H-[1,2,4]triazolo[4,3-a]-quinazolin-5-one]"
16,176 °C,"O=c1c2cc(Cl)ccc2n2c(N3CCCC3)nnc2n1Cc1cccnc1 [Compound 31, 7-Chloro-4-pyridin-3-ylmethyl-1-pyrrolidin-1-yl-4H-[1,2,4]triazolo[4,3-a]quinazolin-5-one]"
17,187 °C,"O=c1nc2n(C/C=C/c3ccccc3)nc(N3CCCCC3)n2c2ccc(Br)cc12 [Compound 141, 7-Bromo-3-((E)-3-phenyl-allyl)-1-piperidin-1-yl-3H-[1,2,4]triazolo[4,3-a]quinazolin-5one]"
18,176 °C,"O=c1nc2n(CC=Cc3ccccc3)nc(N3CCCCCC3)n2c2ccccc12 [Compound 109, 1-(azepan-1-yl)-3-(3-phenylallyl)-3H-[1,2,4]triazolo[4,3-a]-quinazolin-5-one]"
19,186 °C,"Cc1ccc2c(c1)c(=O)n(Cc1ccccc1)c1nnc(N(C)C)n21 [Compound 192, 4-Benzyl-1-dimethylamino-7-methyl-4H-[1,2,4]triazolo[4,3-a]quinazolin-5-one]"
